Tests used:
[1] = target: human BCL6 BTB domain (Trx-6×His-BCL6) / BCOR-AF633 peptide (Homo sapiens (Human), UniProt P41182); experiment: HTRF assay; type: binding; settings: 1 nM Trx-6×His-BCL6, 300 nM BCOR-AF633 peptide, 2 hours incubation
Experimental: The % inhibition at each concentration was calculated by normalising FRET ratio to the appropriate high (DMSO with all reagents) and low (DMSO without BCL6) controls.

[2] = target: BCL6-NCOR2(SMRT) corepressor protein-protein interaction (Homo sapiens (Human), UniProt P41182); experiment: NanoBRET cell assay; type: cell-based; settings: for IC50: read-out: NanoBRET cell avg pIC50 (converted)
Source text: At 20 hr post-transfection, cells were collected, washed with PBS, and exchanged into media containing phenol red-free OptiMEM+4% FBS (Life Technology).

Structure (SMILES) | HTRF avg pIC50 (1 nM) [1] | IC50 [2] [µM] | IC50 ([1]; HTRF avg pIC50 (1 nM)) [µM] | NanoBRET cell avg pIC50 ([2]; HEK293T cells co-transfected with BCL6-nanoLuc and NCOR2-HaloTag, 6 hr incubation)
C[C@H]1CCOc2c(c3cc(Nc4ccnc(Cl)c4Cl)ccc3n(C)c2=O)N1 [Example 4a, (S)-10-((2,3-dichloropyridin-4-yl)amino)-2,7-dimethyl-1,2,3,4-tetrahydro-[1,4]oxazepino[2,3-c]quinolin-6(7H)-one] | 6.21 | 4.9 |  | 
C[C@H]1COC(=O)c2c(c3cc(Nc4cc(OC5CCOCC5)ncc4Cl)ccc3n(C)c2=O)N1 [Example 7a] | 6.72 | 19.1 |  | 
Cn1c(=O)c2c(c3cc(Nc4nc(N5C6COCC5CC(C)(O)C6)ncc4Cl)ccc31)N[C@@H](C1CC1)CCO2 (stereo partly drawn) [Example 12h, (R)-10-((5-chloro-2-((1R,5S,7S)-7-hydroxy-7-methyl-3-oxa-9-azabicyclo[3.3.1]nonan-9-yl)pyrimidin-4-yl)amino)-2-cyclopropyl-7-methyl-1,2,3,4-tetrahydro-[1,4]oxazepino[2,3-c]quinolin-6(7H)-one] | 7.93 | 0.145 |  | 
Cn1c(=O)c2c(c3cc(Nc4nc(N5CCC(F)(F)CC5)ncc4Cl)ccc31)NC(C1CC1)COC2=O (stereo not drawn) [Example 8o, 10-((5-chloro-2-(4,4-difluoropiperidin-1-yl)pyrimidin-4-yl)amino)-2-cyclopropyl-7-methyl-2,3-dihydro-[1,4]oxazepino[6,5-c]quinoline-5,6(1H,7H)-dione] | 6.43 | 9.33 |  | 
C[C@H]1CCOc2c(c3cc(Nc4nc(-n5ccc(C(F)(F)F)n5)ncc4Cl)ccc3n(C)c2=O)N1 [Example 5c, (S)-10-((5-chloro-2-(3-(trifluoromethyl)-1H-pyrazol-1-yl)pyrimidin-4-yl)amino)-2,7-dimethyl-1,2,3,4-tetrahydro-[1,4]oxazepino[2,3-c]quinolin-6(7H)-one] | 6.43 | 4.68 |  | 
C[C@H]1COC(=O)c2c(c3cc(Nc4nc(N5C6CCCC5CC6)ncc4Cl)ccc3n(C)c2=O)N1 [Example 8b, (2S)-10-((2-(8-azabicyclo[3.2.1]octan-8-yl)-5-chloropyrimidin-4-yl)amino)-2,7-dimethyl-2,3-dihydro-[1,4]oxazepino[6,5-c]quinoline-5,6(1H,7H)-dione] | 6.85 | 2.19 |  | 
Cn1c(=O)c2c(c3cc(Nc4ccnc(Cl)c4C#N)ccc31)NC(C)(C)CCO2 [Example 1f, 2-chloro-4-((2,2,7-trimethyl-6-oxo-1,2,3,4,6,7-hexahydro-[1,4]oxazepino[2,3-c]quinolin-10-yl)amino)nicotinonitrile] | 6.24 | 5.13 |  | 
Cn1c(=O)c2c(c3cc(Nc4nc(N5CC(F)(F)C[C@@H]5CO)ncc4Cl)ccc31)N[C@@H](C1CC1)C(F)(F)CO2 [Example 12x, (S)-10-((5-chloro-2-((R)-4,4-difluoro-2-(hydroxymethyl)pyrrolidin-1-yl)pyrimidin-4-yl)amino)-2-cyclopropyl-3,3-difluoro-7-methyl-1,2,3,4-tetrahydro-[1,4]oxazepino[2,3-c]quinolin-6(7H)-one] | 8.20 | 0.145 |  | 
Cn1c(=O)c2c(c3cc(Nc4nc(N5C6COCC5CC(O)C6)ncc4Cl)ccc31)NC(C1CC1)C(F)(F)CO2 [Example 11a, 10-((5-chloro-2-((1R,5S,7s)-7-hydroxy-3-oxa-9-azabicyclo[3.3.1]nonan-9-yl)pyrimidin-4-yl)amino)-2-cyclopropyl-3,3-difluoro-7-methyl-1,2,3,4-tetrahydro-[1,4]oxazepino[2,3-c]quinolin-6(7H)-one] | 8.81 | 0.00501 |  | 
Cn1c(=O)c2c(c3cc(Nc4ccnc(Cl)c4C#N)ccc31)N[C@@H](C1CC1)CCS2 [Example 1s, (R)-2-chloro-4-((2-cyclopropyl-7-methyl-6-oxo-1,2,3,4,6,7-hexahydro-[1,4]thiazepino[2,3-c]quinolin-10-yl)amino)nicotinonitrile] | 7.83 | 0.0631 |  | 
Cn1c(=O)c2c(c3cc(Nc4nc(N5CC(C)(C)OC(C)(C)C5)ncc4Cl)ccc31)N[C@@H](C1CC1)CCO2 [Example 5k, (R)-10-((5-chloro-2-(2,2,6,6-tetramethylmorpholino)pyrimidin-4-yl)amino)-2-cyclopropyl-7-methyl-1,2,3,4-tetrahydro-[1,4]oxazepino[2,3-c]quinolin-6(7H)-one] | 7.22 | 0.112 |  | 
CN1CCN(c2ncc(Cl)c(Nc3ccc4c(c3)c3c(c(=O)n4C)OCC(F)(F)[C@H](C4CC4)N3)n2)CC1=O [Example 12a, (S)-10-((5-chloro-2-(4-methyl-3-oxopiperazin-1-yl)pyrimidin-4-yl)amino)-2-cyclopropyl-3,3-difluoro-7-methyl-1,2,3,4-tetrahydro-[1,4]oxazepino[2,3-c]quinolin-6(7H)-one] | 8.82 | 0.0186 |  | 
Cn1c(=O)c2c(c3cc(Nc4nc(N5CC6CCC(C5)O6)ncc4Cl)ccc31)N[C@@H](C1CC1)C(F)(F)CO2 [Example 12u, (S)-10-((2-(8-oxa-3-azabicyclo[3.2.1]octan-3-yl)-5-chloropyrimidin-4-yl)amino)-2-cyclopropyl-3,3-difluoro-7-methyl-1,2,3,4-tetrahydro-[1,4]oxazepino[2,3-c]quinolin-6(7H)-one] |  |  | 0.00263 | 7.83
CN1CCN(c2ncc(Cl)c(Nc3ccc4c(c3)c3c(c(=O)n4C)OCC[C@H](C4CC4)N3)n2)CC1=O [Example 12b, (R)-10-((5-chloro-2-(4-methyl-3-oxopiperazin-1-yl)pyrimidin-4-yl)amino)-2-cyclopropyl-7-methyl-1,2,3,4-tetrahydro-[1,4]oxazepino[2,3-c]quinolin-6(7H)-one] | 7.80 | 0.0603 |  | 
CCC1CCOc2c(c3cc(Nc4ccnc(Cl)c4C#N)ccc3n(C)c2=O)N1 (stereo not drawn) [Example 1c, 2-chloro-4-((2-ethyl-7-methyl-6-oxo-1,2,3,4,6,7-hexahydro-[1,4]oxazepino[2,3-c]quinolin-10-yl)amino)nicotinonitrile] | 6.32 | 8.71 |  | 
C[C@@H]1CN(c2ncc(Cl)c(Nc3ccc4c(c3)c3c(c(=O)n4C)OCC[C@H](C)N3)n2)C[C@H](C)O1 [Example 5g, (S)-10-((5-chloro-2-((2S,6R)-2,6-dimethylmorpholino)pyrimidin-4-yl)amino)-2,7-dimethyl-1,2,3,4-tetrahydro-[1,4]oxazepino[2,3-c]quinolin-6(7H)-one] | 6.88 | 2.04 |  | 
C[C@@H]1CN(c2ncc(Cl)c(Nc3ccc4c(c3)c3c(c(=O)n4C)C(=O)OC[C@H](C)N3)n2)C[C@H](C)O1 [Example 8a, (S)-10-((5-chloro-2-((2S,6R)-2,6-dimethylmorpholino)pyrimidin-4-yl)amino)-2,7-dimethyl-2,3-dihydro-[1,4]oxazepino[6,5-c]quinoline-5,6(1H,7H)-dione] | 6.97 | 9.55 |  | 
C[C@H]1CCOc2c(c3cc(Nc4nc(N5CCOCC5)ncc4Cl)ccc3n(C)c2=O)N1 [Example 5h, (S)-10-((5-chloro-2-morpholinopyrimidin-4-yl)amino)-2,7-dimethyl-1,2,3,4-tetrahydro-[1,4]oxazepino[2,3-c]quinolin-6(7H)-one] | 7.01 | 1.74 |  | 

Reference: US20230287003A1, “BCL6 INHIBITORS” (Cancer Research Technology Limited, priority 2018, published 2023)
